Data set [1] is described as follows: physchem. Particulars: n-octanol/phosphate buffer, pH 7.4.
Data set [2] is described as follows: physchem. As to conditions: buffer, pH 4.
Data set [3] is described as follows: physchem. Particulars: buffer, pH 7.
Data set [4] can be described thus: physchem. Particulars: buffer, pH 9.
A short description of data set [5]: in vitro. Particulars: rat, hepatocytes.
Data set [6] can be described thus: in vitro. As to conditions: rat, liver microsomes.
Data set [7] concerns Escherichia coli. Kind of data set: microbe, parasite or virus in culture. As to conditions: ATCC 25922.
Data set [8] deals with Klebsiella pneumoniae. The data set can be described thus: microbe, parasite or virus in culture. Particulars: T6474.
For data set [9], the system named is Pseudomonas aeruginosa. Kind of data set: microbe, parasite or virus in culture. Particulars: ATCC 27853.
In data set [10] the test system is T1, UDP-3-O-acyl-N-acetylglucosamine deacetylase (Escherichia coli K-12), P0A725 [C125S].
T1 sequence (whole entry): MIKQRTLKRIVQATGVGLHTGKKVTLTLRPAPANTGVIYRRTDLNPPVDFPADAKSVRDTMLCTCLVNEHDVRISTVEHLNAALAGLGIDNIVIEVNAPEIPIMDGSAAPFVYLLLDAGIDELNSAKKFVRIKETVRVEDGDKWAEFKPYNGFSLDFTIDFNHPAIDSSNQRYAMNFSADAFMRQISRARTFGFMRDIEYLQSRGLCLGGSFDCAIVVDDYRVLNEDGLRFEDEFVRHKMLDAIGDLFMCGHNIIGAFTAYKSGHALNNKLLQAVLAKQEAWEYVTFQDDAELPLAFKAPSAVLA
As to conditions: 25 uM.

Data set [11] concerns T2, UDP-3-O-acyl-N-acetylglucosamine deacetylase (Pseudomonas aeruginosa (strain ATCC 15692 / PAO1 / 1C / PRS 101 / LMG12228)), P47205 [C40S].
T2 sequence (whole entry): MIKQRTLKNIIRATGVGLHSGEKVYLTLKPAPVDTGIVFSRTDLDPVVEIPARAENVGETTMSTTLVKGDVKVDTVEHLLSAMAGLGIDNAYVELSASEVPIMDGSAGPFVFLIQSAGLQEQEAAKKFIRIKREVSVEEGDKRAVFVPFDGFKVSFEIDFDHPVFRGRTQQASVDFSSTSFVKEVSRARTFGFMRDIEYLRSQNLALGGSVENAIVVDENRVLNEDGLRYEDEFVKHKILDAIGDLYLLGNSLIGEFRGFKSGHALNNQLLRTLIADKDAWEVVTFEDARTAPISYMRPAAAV
Particulars: 25 uM.

Data set [12] in a line: in vivo. As to conditions: mouse, sc, 150 mg/kg.
Data set [13] is described as follows: physchem.

≈ marks a conversion by molar mass, not a printed value.

Compound `C[C@@](CCN1Cc2cc(C#CC#C[C@@H]3C[C@H]3[C@H](O)CO)cn2C1=O)(C(=O)NO)S(C)(=O)=O` had a pH-dependent lipophilicity (logD) in data set [1] of 0.5. Also, the solubility at 24 h is 618 µg/mL (≈ 1330 µM) in data set [2], over 780 µg/mL in data set [3] and over 780 µg/mL in data set [4]. The same compound gave a hepatocyte CLint at 1 µM in data set [5] of 10 µL/min/1e6 cells. Further, in data set [6], the microsomal CLint at 1 µM was under 10 µL/min/mg. The MIC in data set [7] is 0.25 µg/mL (≈ 0.539 µM); in data set [8] it was 1 µg/mL (≈ 2.16 µM); in [9], 0.5 µg/mL (≈ 1.08 µM).
`CC(C)(O)CN1CC(C#CC#Cc2cc3n(c2)C(=O)N(CC[C@](C)(C(=O)NO)S(C)(=O)=O)C3)C1`: the deltaTm in data set [10] stood at 10.3 K; in data set [11], 12.1 K. In data set [12], the AUC(0-t) at 24 h was determined as 47300 ng·h/mL. The compound further gave a logD in data set [1] of 0.7. For the same compound, in data set [13], the pKa worked out at 7.8. Besides, the solubility at 24 h in [2], in data set [3] and in [4] was over 830 µg/mL throughout. The MIC turned out to be 0.5 µg/mL (≈ 1.02 µM) in [7], 1 µg/mL (≈ 2.04 µM) in data set [8] and 0.5 µg/mL (≈ 1.02 µM) in data set [9].
Compound `C[C@]1(CO)C[C@@H]1C#CC#Cc1cc2n(c1)C(=O)N(CC[C@](C)(C(=O)NO)S(C)(=O)=O)C2` yielded a logD in [1] of 1.6. Moreover, the figures for the solubility at 24 h in [2], in data set [3] and in data set [4] were 344 µg/mL (≈ 769 µM), 401 µg/mL (≈ 896 µM) and 506 µg/mL (≈ 1130 µM), respectively. In data set [5], this compound had a hepatocyte CLint at 1 µM of 55 µL/min/1e6 cells. The compound also registered a microsomal CLint at 1 µM in data set [6] of under 10 µL/min/mg. Moreover, the MIC in [7], in data set [8] and in data set [9] was 0.25 µg/mL (≈ 0.559 µM) in each case.
In the case of `C[C@@](CCN1Cc2cc(C#CC#C[C@@H]3C[C@H]3CO)cn2C1=O)(C(=O)NO)S(C)(=O)=O`, the solubility at 24 h is 600 µg/mL (≈ 1380 µM) in data set [2], 602 µg/mL (≈ 1390 µM) in data set [3] and 552 µg/mL (≈ 1270 µM) in data set [4]. The hepatocyte CLint at 1 µM in data set [5] is 13.4 µL/min/1e6 cells. Also, the microsomal CLint at 1 µM in data set [6] was under 10 µL/min/mg. Moreover, the MIC in data set [7] was 0.12 µg/mL (≈ 0.277 µM); in data set [8], 0.25 µg/mL (≈ 0.577 µM); in data set [9] it was 0.5 µg/mL (≈ 1.15 µM).
In the case of `C[C@@](CCN1Cc2cc(C#CC#C[C@H]3C[C@]3(F)CO)cn2C1=O)(C(=O)NO)S(C)(=O)=O`, the logD in [1] was 0.9. For the same compound, the values for the solubility at 24 h in data set [2], in data set [3] and in [4] were 354 µg/mL (≈ 784 µM), 613 µg/mL (≈ 1360 µM) and over 760 µg/mL, respectively. The compound also displayed a hepatocyte CLint at 1 µM in data set [5] of 13 µL/min/1e6 cells. Also, in [6], the microsomal CLint at 1 µM stood at 16 µL/min/mg. The MIC in data set [7] came to 0.25 µg/mL (≈ 0.554 µM); in data set [8], 0.5 µg/mL (≈ 1.11 µM); in data set [9], 0.5 µg/mL (≈ 1.11 µM).
As to `CN(C)C1(C#CC#Cc2cc3n(c2)C(=O)N(CC[C@](C)(C(=O)NO)S(C)(=O)=O)C3)CC1`, the deltaTm in data set [10] was found to be 11.6 K; in data set [11], 13.4 K. Also, the logD in data set [1] is 2.1. Moreover, the pKa in data set [13] was determined as 5.5. Also, the solubility at 24 h in [2] turned out to be 412 µg/mL (≈ 923 µM); in data set [3], 15 µg/mL (≈ 33.6 µM); in data set [4], 95 µg/mL (≈ 213 µM). Further, the MIC was found to be 0.25 µg/mL (≈ 0.56 µM) in [7], 0.5 µg/mL (≈ 1.12 µM) in [8] and 0.5 µg/mL (≈ 1.12 µM) in [9].
Take `C[C@@](CCN1Cc2cc(C#CC#CC3(CO)CC3)cn2C1=O)(C(=O)NO)S(C)(=O)=O`: in [12], the AUC(0-t) at 24 h stood at 89500 ng·h/mL. Also, the logD in data set [1] was 0.9. Moreover, the solubility at 24 h in [2] was 149 µg/mL (≈ 344 µM); in [3], 384 µg/mL (≈ 886 µM); in data set [4] it was 553 µg/mL (≈ 1280 µM). Moreover, in data set [5], the hepatocyte CLint at 1 µM amounted to 8.5 µL/min/1e6 cells. In addition, the microsomal CLint at 1 µM in data set [6] worked out at 24 µL/min/mg. Further, the MIC in data set [7] came out at 0.25 µg/mL (≈ 0.577 µM); in data set [8], 1 µg/mL (≈ 2.31 µM); in data set [9], 0.5 µg/mL (≈ 1.15 µM).

What is called logD is lipophilicity at a set pH, counting ionised and neutral species. The low end stands for lower lipophilicity, the high end for higher lipophilicity. A word on the solubility: it is the concentration that dissolves in the medium under given conditions. The term hepatocyte CLint denotes a measure of how fast metabolising enzymes remove a compound, apart from limits set by blood flow. High values mean rapid turnover, low ones slow turnover. For orientation: microsomal CLint means the rate of metabolic loss divided by the concentration. Read a high microsomal CLint as faster metabolism. A word on the AUC(0-t): it is the area under the concentration-time curve up to a stated or last time point. One may read the pKa as the negative logarithm of the acid dissociation constant. High values mean a group that holds its proton tightly, low ones a group that gives up its proton readily.

These data come from ChEMBL document CHEMBL4321867, “Optimization of LpxC Inhibitor Lead Compounds Focusing on Efficacy and Formulation for High Dose Intravenous Administration” (J Med Chem, 2020).
